Values quoted from earlier work as cited in paper PMC11258229 (Scientific Reports, 2024).

Columns and labels:
[1] = high permeability and low solubility

half-life (T1/2): twenty to sixty six | mean T1/2: thirty five | renal clearance, share of the total conjugate oral dosage: around 13% | biopharmaceutical classification system category [1]: class II
Compound: CC[C@@H]([C@H](C)O)n1ncn(-c2ccc(N3CCN(c4ccc(OC[C@@H]5CO[C@@](Cn6cncn6)(c6ccc(F)cc6F)C5)cc4)CC3)cc2)c1=O [Posaconazole]
